Measured values from patent US20230072421A1, “TARGETED RADIOPHARMACEUTICALS FOR THE DIAGNOSIS AND TREATMENT OF PROSTATE CANCER” (Bayer AS, priority 2019, published 2023).

Legend:
VCaP cells = assay: Cell proliferation assay (CellTiter-Glo, 5-day exposure), VCaP; assay type: cell-based; conditions: 4000 cells/well, Th-227 labelled at 375 kBq/nmol, mean of 1 to 6 experiments
Protocol: (§1) Inhibition of cell proliferation of Thorium-227 labeled PMSA SMOL ligands was tested different prostate cancer cell lines, namely 22Rv1, VCaP, C4-2 (all from ATCC, Manassas, Va., USA) and LNCaP (DMSZ, Braunschweig). Cells were seeded using the following conditions in 384 well plates (Corning) in 30 μl of growth media at 4000 cells/well for VCaP cells and 1000 cells/well for 22Rv1, C4-2 and LNCaP cells.
(§2) Cells were cultivated an incubator at 37° C. and 5% C02 over night. […] In sister plates cell viability at treatment start (d=0) was determined using CellTiter-Glo® assay (CTG, Promega, Madison, Wis., USA), by adding 30 μl per well CTG solution, incubation for 10 min and reading of Luminescence in a PheraStarFSX instrument (BMG Labtech). After a 5-day exposure in the presenced of test compounds, cell viability of treated or untreated control cells was determined again using CellTiter-Glo® assay (Promega, Madison, Wis., USA). […] The DRC software is a Biobook Spreadsheet that was developed by Bayer AG and Bayer Business Services on the IDBS E-Workbook Suite platform (IDBS: ID Business Solutions Ltd., Guildford, UK).

C4-2 cells = assay: Cell proliferation assay (CellTiter-Glo, 5-day exposure), C4-2; assay type: cell-based; conditions: C4-2, 1000 cells/well, Th-227 labelled at 375 kBq/nmol, mean of 1 to 6 experiments
Protocol: as §1, §2

22Rv1 cells = assay: Cell proliferation assay (CellTiter-Glo, 5-day exposure), 22Rv1; assay type: cell-based; conditions: 22Rv1, 1000 cells/well, Th-227 labelled at 375 kBq/nmol, mean of 1 to 6 experiments
Protocol: as §1, §2

[1] = test system: LNCaP human prostate cancer cells; assay: LNCaP xenograft efficacy study (T/C tumor area); assay type: in vivo, SCID mice; conditions: Example IV; day 36 after start of therapy; once 1 MBq/kg
Protocol: SCID mice were randomly assigned to experimental groups, ten animals per group (efficacy) or n=3-5 per time point of biodistribution study. At the initiation of the study, a testosterone pellet was subcutaneously transplanted, the animals were shaved, tattooed and each cage was labeled with the cage number, study number and number of animals per cage.
LNCaP human prostate cancer cells were cultured as described according to the supplier's protocols. Cells were harvested for transplantation in a subconfluent (70%) state. Animals were injected with 5×10^6 LNCaP cells suspended in 100% Matrigel subcutaneously into the flank of the mice.
Efficacy study: When tumors reached a predetermined size in mice of 35-50 mm^2 animals were randomized into treatment and control groups (n=10 animals/group) and treatment with the defined radioactive dose was started. The i.v. application volume was 100 μl/mice.
Tumor response was assessed by determination of the tumor area (product of the longest diameter and its perpendicular) using a caliper. The animal body weight was monitored as a measure for treatment-related toxicity. Measurement of tumor area and body weight was performed two to three times weekly.
Animals were sacrificed when showing signs of toxicity (>20% body weight loss) or when tumors reached a size of approximately 200 mm^2.
Tumor growth inhibition is presented as T/C ratio (Treatment/Control) calculated with tumor areas when the vehicle control group had to be closed.

## Cc1cc(C(=O)NCCN(CCCN(CCNC(=O)c2cc(C)n(CC(=O)NCC3CCC(C(=O)NC(Cc4cnc5ccccc5c4)C(=O)NCCCCC(NC(=O)NC(CCC(=O)O)C(=O)O)C(=O)O)CC3)c(=O)c2[O-])CCNC(=O)c2cc(C)n(CC(=O)NCC3CCC(C(=O)NC(Cc4cnc5ccccc5c4)C(=O)NCCCCC(NC(=O)NC(CCC(=O)O)C(=O)O)C(=O)O)CC3)c(=O)c2[O-])CCNC(=O)c2cc(C)n(CC(=O)NCC3CCC(C(=O)NC(Cc4cnc5ccccc5c4)C(=O)NCCCCC(NC(=O)NC(CCC(=O)O)C(=O)O)C(=O)O)CC3)c(=O)c2[O-])c([O-])c(=O)n1CC(=O)O.[227Th+4] (stereo not shown) [Example 22-C trimer-227Th]
VCaP cells
  Proliferation assay on cancer cell lines by TTCs Default Pivot #3 IC50 [kBq/mL] VCap 4000cells 375kBq/nmol (mean): 2.62 kBq/mL
C4-2 cells
  Proliferation assay on cancer cell lines by TTCs Default Pivot #3 IC50 [kBq/mL] C4-2 1000cells 375kBq/nmol (mean): 1.82 kBq/mL
22Rv1 cells
  Proliferation assay on cancer cell lines by TTCs Default Pivot #3 IC50 [kBq/mL] 22Rv1 1000cells 375kBq/nmol (mean): 0.84 kBq/mL
[1]
  T/Carea: 0.64

## O=C([O-])CN1CCN(CC(=O)[O-])CCN(CC(=O)NCc2ccc(C(=O)N[C@@H](Cc3ccc4ccccc4c3)C(=O)NCCCC[C@H](NC(=O)N[C@@H](CCC(=O)O)C(=O)O)C(=O)O)cn2)CCN(CC(=O)[O-])CC1.[227Th+4] [Example 26-B-227Th, [^227Th]Thorium (3S,10S,14S)-3-[(naphthalen-2-yl)methyl]-1,4,12-trioxo-1-{6-[(2-{4,7,10-tris[(carboxy-kappaO)methyl]-1,4,7,10-tetraazacyclododecan-1-yl-kappa^4N^1,N^4,N^7,N^10}acetamido)methyl]pyridin-3-yl}-2,5,11,13-tetraazahexadecane-10,14,16-tricarboxylate]
VCaP cells
  Proliferation assay on cancer cell lines by TTCs Default Pivot #3 IC50 [kBq/mL] VCap 4000cells 375kBq/nmol (mean): 1.15 kBq/mL
C4-2 cells
  Proliferation assay on cancer cell lines by TTCs Default Pivot #3 IC50 [kBq/mL] C4-2 1000cells 375kBq/nmol (mean): 0.12 kBq/mL
22Rv1 cells
  Proliferation assay on cancer cell lines by TTCs Default Pivot #3 IC50 [kBq/mL] 22Rv1 1000cells 375kBq/nmol (mean): 0.87 kBq/mL

## O=C([O-])CN1CCN(CC(=O)[O-])CCN(CC(=O)Nc2ccc(CC(=O)N[C@@H](Cc3ccc4ccccc4c3)C(=O)NCCCC[C@H](NC(=O)N[C@@H](CCC(=O)O)C(=O)O)C(=O)O)cc2)CCN(CC(=O)[O-])CC1.[227Th+4] [Example 23-B-227Th, [^227Th]Thorium-(4S,11S,15S)-4-[(naphthalen-2-yl)methyl]-2,5,13-trioxo-1-[4-(2-{4,7,10-tris[(carboxy-kappaO)methyl]-1,4,7,10-tetraazacyclododecan-1-yl-kappa^4N^1,N^4,N^7,N^10}acetamido)phenyl]-3,6,12,14-tetraazaheptadecane-11,15,17-tricarboxylate]
VCaP cells
  Proliferation assay on cancer cell lines by TTCs Default Pivot #3 IC50 [kBq/mL] VCap 4000cells 375kBq/nmol (mean): 3 kBq/mL
C4-2 cells
  Proliferation assay on cancer cell lines by TTCs Default Pivot #3 IC50 [kBq/mL] C4-2 1000cells 375kBq/nmol (mean): 1.32 kBq/mL
22Rv1 cells
  Proliferation assay on cancer cell lines by TTCs Default Pivot #3 IC50 [kBq/mL] 22Rv1 1000cells 375kBq/nmol (mean): 0.96 kBq/mL

## Cc1cc(C(=O)NCCN(CCCN(CCNC(=O)c2cc(C)n(CC(=O)NCC3CCC(C(=O)NC(Cc4ccc5ccccc5c4)C(=O)NCCCCC(NC(=O)NC(CCC(=O)O)C(=O)O)C(=O)O)CC3)c(=O)c2[O-])CCNC(=O)c2cc(C)n(CC(=O)NCC3CCC(C(=O)NC(Cc4ccc5ccccc5c4)C(=O)NCCCCC(NC(=O)NC(CCC(=O)O)C(=O)O)C(=O)O)CC3)c(=O)c2[O-])CCNC(=O)c2cc(C)n(CC(=O)NCC3CCC(C(=O)NC(Cc4ccc5ccccc5c4)C(=O)NCCCCC(NC(=O)NC(CCC(=O)O)C(=O)O)C(=O)O)CC3)c(=O)c2[O-])c([O-])c(=O)n1CC(=O)O.[227Th+4] (stereo not shown) [1-C trimer-227Th]
VCaP cells
  Proliferation assay on cancer cell lines by TTCs Default Pivot #3 IC50 [kBq/mL] VCap 4000cells 375kBq/nmol (mean): 3.11 kBq/mL
C4-2 cells
  Proliferation assay on cancer cell lines by TTCs Default Pivot #3 IC50 [kBq/mL] C4-2 1000cells 375kBq/nmol (mean): 2.24 kBq/mL
22Rv1 cells
  Proliferation assay on cancer cell lines by TTCs Default Pivot #3 IC50 [kBq/mL] 22Rv1 1000cells 375kBq/nmol (mean): 0.74 kBq/mL

## O=C([O-])CN1CCN(CC(=O)[O-])CCN(CC(=O)NCc2ccc(C(=O)N[C@@H](Cc3ccc4ccccc4c3)C(=O)NCCCC[C@H](NC(=O)N[C@@H](CCC(=O)O)C(=O)O)C(=O)O)cc2)CCN(CC(=O)[O-])CC1.[227Th+4] [Example 24-B-227Th, [^227Th]Thorium (3S,10S,14S)-3-[(naphthalen-2-yl)methyl]-1,4,12-trioxo-1-{4-[(2-{4,7,10-tris[(carboxy-kappaO)methyl]-1,4,7,10-tetraazacyclododecan-1-yl-kappa^4N^1,N^4,N^7,N^10}acetamido)methyl]phenyl}-2,5,11,13-tetraazahexadecane-10,14,16-tricarboxylate]
VCaP cells
  Proliferation assay on cancer cell lines by TTCs Default Pivot #3 IC50 [kBq/mL] VCap 4000cells 375kBq/nmol (mean): 0.68 kBq/mL
C4-2 cells
  Proliferation assay on cancer cell lines by TTCs Default Pivot #3 IC50 [kBq/mL] C4-2 1000cells 375kBq/nmol (mean): 0.12 kBq/mL
22Rv1 cells
  Proliferation assay on cancer cell lines by TTCs Default Pivot #3 IC50 [kBq/mL] 22Rv1 1000cells 375kBq/nmol (mean): 0.56 kBq/mL

## O=C([O-])CN1CCN(CC(=O)[O-])CCN(CC(=O)NCc2cccc(C(=O)N[C@@H](Cc3ccc4ccccc4c3)C(=O)NCCCC[C@H](NC(=O)N[C@@H](CCC(=O)O)C(=O)O)C(=O)O)c2)CCN(CC(=O)[O-])CC1.[227Th+4] [Example 27-B-227Th, [^227Th]Thorium (3S,10S,14S)-3-[(naphthalen-2-yl)methyl]-1,4,12-trioxo-1-{3-[(2-{4,7,10-tris[(carboxy-kappaO)methyl]-1,4,7,10-tetraazacyclododecan-1-yl-kappa^4N^1,N^4,N^7,N^10}acetamido)methyl]phenyl}-2,5,11,13-tetraazahexadecane-10,14,16-tricarboxylate]
VCaP cells
  Proliferation assay on cancer cell lines by TTCs Default Pivot #3 IC50 [kBq/mL] VCap 4000cells 375kBq/nmol (mean): 0.73 kBq/mL
C4-2 cells
  Proliferation assay on cancer cell lines by TTCs Default Pivot #3 IC50 [kBq/mL] C4-2 1000cells 375kBq/nmol (mean): 0.08 kBq/mL
22Rv1 cells
  Proliferation assay on cancer cell lines by TTCs Default Pivot #3 IC50 [kBq/mL] 22Rv1 1000cells 375kBq/nmol (mean): 0.65 kBq/mL

## O=C([O-])CN1CCN(CC(=O)[O-])CCN(CC(=O)NCc2ccc(C(=O)N[C@@H](Cc3ccc4ccccc4c3)C(=O)NCCCC[C@H](NC(=O)N[C@@H](CCC(=O)O)C(=O)O)C(=O)O)nc2)CCN(CC(=O)[O-])CC1.[227Th+4] [Example 25-B-227Th, [^227Th]Thorium (3S,10S,14S)-3-[(naphthalen-2-yl)methyl]-1,4,12-trioxo-1-{5-[(2-{4,7,10-tris[(carboxy-kappaO)methyl]-1,4,7,10-tetraazacyclododecan-1-yl-kappa^4N^1,N^4,N^7,N^10}acetamido)methyl]pyridin-2-yl}-2,5,11,13-tetraazahexadecane-10,14,16-tricarboxylate]
VCaP cells
  Proliferation assay on cancer cell lines by TTCs Default Pivot #3 IC50 [kBq/mL] VCap 4000cells 375kBq/nmol (mean): 1.51 kBq/mL
C4-2 cells
  Proliferation assay on cancer cell lines by TTCs Default Pivot #3 IC50 [kBq/mL] C4-2 1000cells 375kBq/nmol (mean): 0.1 kBq/mL
22Rv1 cells
  Proliferation assay on cancer cell lines by TTCs Default Pivot #3 IC50 [kBq/mL] 22Rv1 1000cells 375kBq/nmol (mean): 0.73 kBq/mL

## Cc1cc(C(=O)NCCN(CCCN(CCNC(=O)c2cc(C)n(CC(=O)O)c(=O)c2[O-])CCNC(=O)c2cc(C)n(CC(=O)NCC3CCC(C(=O)NC(Cc4cnc5ccccc5c4)C(=O)NCCCCC(NC(=O)NC(CCC(=O)O)C(=O)O)C(=O)O)CC3)c(=O)c2[O-])CCNC(=O)c2cc(C)n(CC(=O)O)c(=O)c2[O-])c([O-])c(=O)n1CC(=O)O.[227Th+4] (stereo not shown) [Example 22-C monomer-227Th]
VCaP cells
  Proliferation assay on cancer cell lines by TTCs Default Pivot #3 IC50 [kBq/mL] VCap 4000cells 375kBq/nmol (mean): 2.01 kBq/mL
C4-2 cells
  Proliferation assay on cancer cell lines by TTCs Default Pivot #3 IC50 [kBq/mL] C4-2 1000cells 375kBq/nmol (mean): 0.43 kBq/mL
22Rv1 cells
  Proliferation assay on cancer cell lines by TTCs Default Pivot #3 IC50 [kBq/mL] 22Rv1 1000cells 375kBq/nmol (mean): 0.72 kBq/mL

## O=C([O-])CN1CCN(CC(=O)[O-])CCN(CC(=O)Nc2ccc(-c3ccn(CC(=O)N[C@@H](Cc4ccc5ccccc5c4)C(=O)NCCCC[C@H](NC(=O)N[C@@H](CCC(=O)O)C(=O)O)C(=O)O)n3)cc2)CCN(CC(=O)[O-])CC1.[227Th+4] [Example 28-B-227Th, [^227Th]Thorium (4S,11S,15S)-4-[(naphthalen-2-yl)methyl]-2,5,13-trioxo-1-{3-[4-(2-{4,7,10-tris[(carboxy-kappaO)methyl]-1,4,7,10-tetraazacyclododecan-1-yl-kappa^4N^1,N^4,N^7,N^10}acetamido)phenyl]-1H-pyrazol-1-yl}-3,6,12,14-tetraazaheptadecane-11,15,17-tricarboxylate]
VCaP cells
  Proliferation assay on cancer cell lines by TTCs Default Pivot #3 IC50 [kBq/mL] VCap 4000cells 375kBq/nmol (mean): 4.77 kBq/mL
C4-2 cells
  Proliferation assay on cancer cell lines by TTCs Default Pivot #3 IC50 [kBq/mL] C4-2 1000cells 375kBq/nmol (mean): 2.22 kBq/mL
22Rv1 cells
  Proliferation assay on cancer cell lines by TTCs Default Pivot #3 IC50 [kBq/mL] 22Rv1 1000cells 375kBq/nmol (mean): 1.22 kBq/mL
